Legend:
[1] = Sensory preference evaluation by 15 panels; details: diluted to sweetness equivalent to 10% (w/w) or 10 brix of sugar, 9-point scale converted to 5-point scale
Description: Prior to sensory evaluation, four samples of Example 1 (STV, STV-Fru, RA, RA-Fru) were diluted to the sweetness equivalent to 10% (w/w) or 10 brix of sugar, and the sensory evaluation was carried out on the four samples.
The evaluation was proceeded as follow: 15 panels were given the four samples and required to evaluate the sweetness preference and the overall preference of the four samples on a 9-point scale (1=very much dislike, 5=neither dislike nor like, 9=very much like).
Then, the statistical analysis was converted to a 5-point scale to verify the significant difference through paired T tests (reliability level of 95%).

[2] = Sensory descriptive analysis by experts (n=15); details: diluted to equivalent sweetness based on 10 brix of sugar
Description: The transfructosylated Stevioside (STV-Fru) and the transfructosylated Rebaudioside A (RA-Fru) prepared in Preparation Example 1 were diluted to the sweetness equivalent to Stevioside (STV) and Rebaudioside A (RA) (sweetness based on 10 brix of sugar), respectively, and then presented to experts (n=15) for descriptive analysis.

[3] = listed as transfructosylated Rebaudioside A
[4] = listed as transfructosylated Stevioside

Row | Structure (SMILES) | Overall Preference [1] | Sweetness Preference [1] | Bitterness Intensity [2] | Feeling of Weight [2] | Off-smell/Off flavor Intensity [2] | Overall Preference [2] | Sweetness Intensity [2] | Sweetness Persistence [2] | Sweetness Preference [2] | other results
1 | C=C1C[C@@]23CC[C@H]4[C@@](C)(CCC[C@@]4(C)C(=O)O[C@@H]4O[C@H](CO)[C@@H](O)[C@H](O)[C@H]4O)[C@@H]2CC[C@]1(O[C@@H]1O[C@H](CO)[C@@H](O)[C@H](O[C@@H]2O[C@H](CO)[C@@H](O)[C@H](O)[C@H]2O)[C@H]1O[C@@H]1O[C@H](CO)[C@@H](O)[C@H](O)[C@H]1O)C3 [RA, Rebaudioside A, reference compound] | 2.72 | 2.51 | 3.4 | 2.9 | 3.3 | 2.6 | 3.2 | 2.9 | 2.5 | –
2 | C=C1C[C@@]23CC[C@H]4[C@@](C)(CCC[C@@]4(C)C(=O)O[C@@H]4O[C@H](CO[C@]5(CO)O[C@H](CO)[C@@H](O)[C@@H]5O)[C@@H](O)[C@H](O)[C@H]4O)[C@@H]2CC[C@]1(O[C@@H]1O[C@H](CO)[C@@H](O)[C@H](O[C@@H]2O[C@H](CO)[C@@H](O)[C@H](O)[C@H]2O)[C@H]1O[C@@H]1O[C@H](CO)[C@@H](O)[C@H](O)[C@H]1O)C3 [RA-Fru, 13-[(2-β-D-glucopyranosyl-3-O-β-D-glucopyranosyl-β-D-glucopyranosyl)oxy]ent-kaur-16-en-19-oic acid 6-O-β-D-fructofuranose-β-D-glucopyranosyl ester] | 3.73 | 3.42 | 1.8 | 2.7 | 2.4 | 3.5 | 3.1 | 2.6 | 3.4 | Overall Preference [1, 3]: excellent; Sweetness Preference [1, 3]: excellent; Bitterness Intensity [2, 3]: significantly low; Off-smell/Off flavor Intensity [2, 3]: significantly low; Overall Preference [2, 3]: significantly high; Sweetness Preference [2, 3]: significantly high
3 | C=C1C[C@@]23CC[C@H]4[C@@](C)(CCC[C@@]4(C)C(=O)O[C@@H]4O[C@H](CO)[C@@H](O)[C@H](O)[C@H]4O)[C@@H]2CC[C@]1(O[C@@H]1O[C@H](CO)[C@@H](O)[C@H](O)[C@H]1O[C@@H]1O[C@H](CO)[C@@H](O)[C@H](O)[C@H]1O)C3 [STV, Stevioside, reference compound] | 2.02 | 2.13 | 3.9 | 2.8 | 3.5 | 2.1 | 2.8 | 2.9 | 2.3 | –
4 | C=C1C[C@@]23CC[C@H]4[C@@](C)(CCC[C@@]4(C)C(=O)O[C@@H]4O[C@H](CO[C@]5(CO)O[C@H](CO)[C@@H](O)[C@@H]5O)[C@@H](O)[C@H](O)[C@H]4O)[C@@H]2CC[C@]1(O[C@@H]1O[C@H](CO)[C@@H](O)[C@H](O)[C@H]1O[C@@H]1O[C@H](CO)[C@@H](O)[C@H](O)[C@H]1O)C3 [STV-Fru] | 3.02 | 3.14 | 2.3 | 3.2 | 2.3 | 3.5 | 2.6 | 2.7 | 3.3 | Overall Preference [1, 4]: excellent; Sweetness Preference [1, 4]: excellent; Bitterness Intensity [2, 4]: significantly low; Off-smell/Off flavor Intensity [2, 4]: significantly low; Overall Preference [2, 4]: significantly high; Sweetness Preference [2, 4]: significantly high

Source: patent US20220160009A1, “COMPOSITION COMPRISING TRANSFRUCTOSYLATED STEVIOL GLYCOSIDE” (CJ CHEILJEDANG CORPORATION, priority 2019, published 2022)
